The structures appear in SMILES notation. Read-outs that look alike come from different tables or passages of the source.

The test system of data set [1] is P. falciparum 3D7 asexual blood stages. In words: Standard 72-hour inhibitor-response (parasite proliferation) assay. It is filed as cell-based. The settings on record: Plasmodium falciparum; 3D7, 72-hour assay; read-out: 3D7 EC50.
Another data set deals with P. falciparum clone HB3. In words: Standard growth inhibition assay, Pf clone panel. It is filed as cell-based. As to conditions: Plasmodium falciparum; clone HB3, Honduras; read-out: EC50 (nM) (95% CI). As to the method: (§1) A diverse panel of P. falciparum clones, collected from four continents with varying genetic backgrounds and well-characterized susceptibilities to novel and existing antimalarials, was treated with TrtE and DHA in standard growth inhibition assays. […] Additional studies are needed to determine whether there is any similarity in mechanism between TrtE and DHA.

For a further data set, the system named is P. falciparum clone GMC1. The experiment in a line: Standard growth inhibition assay, Pf clone panel. As to conditions: Plasmodium falciparum; clone GMC1, Goa, India; read-out: EC50 (nM) (95% CI). It is filed as cell-based. On the procedure: as §1
Data set [2] has as its system P. falciparum clone D10 w/ yDHODH. The experiment in a line: Standard growth inhibition assay, Pf clone panel. It counts as cell-based. As to conditions: Plasmodium falciparum, D10, read-out: EC50 (nM) (95% CI). On the procedure:
as §1

Data set [3] concerns P. falciparum clone IPC 3445. In words: Standard growth inhibition assay, Pf clone panel. It is filed as cell-based. As to conditions: Plasmodium falciparum; clone IPC 3445, Palin, Cambodia; read-out: EC50 (nM) (95% CI). On the procedure: as §1
The subject of the next data set is P. falciparum clone 7G8. In words: Standard growth inhibition assay, Pf clone panel. It is filed as cell-based. As to conditions: Plasmodium falciparum; clone 7G8, Brazil; read-out: EC50 (nM) (95% CI). On the procedure:
as §1

For the next data set, the system named is P. falciparum clone NF54. In words: Standard growth inhibition assay, Pf clone panel. As to conditions: Plasmodium falciparum; clone NF54, Netherlands; read-out: EC50 (nM) (95% CI). It counts as cell-based. On the procedure: as §1
The test system of a further data set is P. falciparum clone 3D7. In words: Standard growth inhibition assay, Pf clone panel. It counts as cell-based. The settings on record: Plasmodium falciparum; clone 3D7, Netherlands; read-out: EC50 (nM) (95% CI). On the procedure: as §1
In data set [4] the test system is P. falciparum clone TM90C2A. The experiment in a line: Standard growth inhibition assay, Pf clone panel. It is filed as cell-based. The settings on record: Plasmodium falciparum, Thailand, read-out: EC50 (nM) (95% CI). As to the method:
as §1

The subject of data set [5] is P. falciparum clone IPC 5202. The experiment in a line: Standard growth inhibition assay, Pf clone panel. The settings on record: Plasmodium falciparum; clone IPC 5202, Battambang, Cambodia; read-out: EC50 (nM) (95% CI). It counts as cell-based. On the procedure: as §1
The next data set concerns P. falciparum clone Dd2. The experiment in a line: Standard growth inhibition assay, Pf clone panel. It counts as cell-based. The settings on record: Plasmodium falciparum. On the procedure:
as §1

Another data set concerns P. falciparum clone V1/S. The experiment in a line: Standard growth inhibition assay, Pf clone panel. It is filed as cell-based. The settings on record: Plasmodium falciparum, Vietnam, read-out: EC50 (nM) (95% CI). As to the method: as §1
A further data set has as its system P. falciparum clone D6. In words: Standard growth inhibition assay, Pf clone panel. It is filed as cell-based. The settings on record: Plasmodium falciparum; clone D6, Sierra Leone; read-out: EC50 (nM) (95% CI). On the procedure: as §1
The next data set has as its system asexual parasites. The settings on record: preliminary single-step selection, data not shown.
The subject of data set [6] is diverse panel of P. falciparum clones. In words: Standard growth inhibition assays, whole panel. The settings on record: including two artemisinin-resistant clones from Western Cambodia. It counts as cell-based, Plasmodium falciparum. On the procedure:
as §1

Data set [7] relates to P. falciparum NF54 oocyst development in Anopheles dirus mosquitoes. The experiment in a line: Mosquito infectivity assay (standard membrane feeding, oocyst count). It is filed as in vivo, Plasmodium falciparum. The settings on record: 100 nM TrtE on late-stage gametocytes, fed to Anopheles dirus, oocysts counted after 9 days, four independent experiments, P = 0.016. As to the method:
(§2) Gametocytes of Pf NF54, the competent gametocyte-producing clone, were treated with TrtE as previously described ([15], [16]). […] To validate the in vitro gametocytocidal activity of TrtE, mosquito infectivity assays were conducted. […] Oocyst development in mosquitoes represents a significant bottleneck in the life cycle of Plasmodium spp. where transmission can be efficiently interrupted ([18]).
Fig 4 TrtE inhibition of oocyst development in mosquitoes. Late-stage Pf NF54 gametocytes were incubated with 100 nM TrtE, the approximate gametocidal EC50, or left untreated. Following incubation and development to stage V, the cultures were fed to female Anopheles dirus mosquitoes using standard membrane feeding techniques. After 9 days, the mosquitoes were dissected, and oocysts were stained and counted. The infection rate was measured as the ratio of mosquitoes with one or more oocysts to the number of dissected mosquitoes. ^*P < 0.05.

The subject of another data set is Pf 3D7. The experiment in a line: Parasite growth alongside mammalian cytotoxicity assays. As to conditions: Plasmodium falciparum; 3D7, grown under identical conditions alongside mammalian cells; read-out: EC50 (µM) (95% CI) 3D7. It counts as cell-based. As to the method:
(§3) In preliminary experiments to evaluate cytotoxicity to mammalian cells, the murine leukemia L1210 cell line and the human liver cell line HepG2 were grown under identical conditions alongside Pf 3D7. These were treated with TrtE, the chemotherapeutic methotrexate, and DSM265, an inhibitor of parasite dihydroorotate dehydrogenase ([19]).

The test system of data set [8] is Pf NF54 late-stage gametocytes (stage III to stage V). In words: Late-stage gametocyte viability assay (alamarBlue). It is filed as cell-based. The settings on record: Plasmodium falciparum, 72 h, 3 days treatment, three independent experiments. As to the method: as §2
Fig 3 TrtE activity against gametocytes. Enriched, late-stage gametocytes were treated for 3 days with TrtE and then viability-tested with alamarBlue (Invitrogen) ([15], [16]). Three independent experiments (squares, triangles, and diamonds) determined the average EC50 to be 140 ± 42 nM.
Background: Resazurin is reduced to fluorescent resorufin, in cell work by metabolically active cells.

Data set [9] deals with murine leukemia L1210 cell line. The experiment in a line: In vitro cytotoxicity assay. On the procedure:
as §3

Data set [10] has as its system human liver cell line HepG2. The experiment in a line: In vitro cytotoxicity assay. It counts as cell-based. As to conditions: for EC50: Homo sapiens. As to the method:
as §3

Take `C[C@H]1[C@@H](O)O[C@@H]2O[C@@]3(C)CC[C@H]4[C@H](C)CC[C@@H]1[C@@]24OO3` [DHA, dihydroartemisinin]: the concentration giving a half-maximal response (EC50) is 129 pM in [1]; 0.16 nM in the data set on P. falciparum clone HB3; 0.21 nM with P. falciparum clone GMC1; 0.12 nM in data set [2]; 0.92 nM in data set [3]; 0.095 nM in the data set on P. falciparum clone 7G8. Further, the half-maximal effective concentration (EC50) was 0.15 nM with P. falciparum clone NF54; 0.11 nM in the data set on P. falciparum clone 3D7; 0.091 nM in [4]; 0.94 nM in data set [5]; 0.14 nM with P. falciparum clone Dd2 (clone Dd2, SE Asia, read-out: EC50 (nM) (95% CI)); 0.084 nM with P. falciparum clone V1/S. For the same compound, in the data set on P. falciparum clone D6, the half-maximal effective concentration (EC50) was found to be 0.17 nM.

`C[C@@H]1CCC2CC(=O)C[C@@H](O)CC/C=C/C=C\CC[C@H](C)OC(=O)[C@@H]3O[B-]45O[C@@H](C(=O)O[C@@H](C)CC/C=C\C=C\CC[C@H](O)CC(=O)CC6CC[C@@H](C)[C@]3(O6)O4)[C@@]1(O2)O5` [Tartrolon E]: the “Hurdle to resistance under drug pressure” value in the data set with asexual parasites is “high hurdles to resistance”. For the same compound, the EC50 in data set [1] worked out at 105 pM; in the data set with Pf 3D7, 0.00016 µM; in data set [8], 140000 pM; in data set [9] (Mus musculus, L1210, read-out: EC50 (µM) (95% CI) L1210), 0.23 µM; with P. falciparum clone HB3 it was 0.13 nM; in the data set with P. falciparum clone GMC1, 0.26 nM. The EC50 turned out to be 0.19 nM in [2]; 0.73 nM in [3]; 0.18 nM in the data set with P. falciparum clone 7G8; 0.2 nM in the data set with P. falciparum clone NF54; 0.16 nM in the data set with P. falciparum clone 3D7; 0.16 nM in data set [4]. Besides, the EC50 was found to be 0.81 nM in [5]; 0.28 nM in the data set with P. falciparum clone Dd2 (DD2, read-out: EC50 (nM) (95% CI)); 0.31 nM with P. falciparum clone V1/S; 0.14 nM with P. falciparum clone D6; 0.071 µM in [10] (HepG2, read-out: EC50 (µM) (95% CI) HepG2); 0.07 µM in [10] (HepG2, as printed in text, read-out: HepG2 EC50). In addition, the “Concentration inhibiting all clones of the panel” value in data set [6] is recorded as “sub-nanomolar concentrations”. In addition, the “Mosquito infection by P. falciparum (infection rate, oocysts)” value in data set [7] is recorded as “significantly inhibited mosquito infection”. Moreover, the “Concentration inhibiting L1210 growth” value in [9] (L1210) is listed as “sub-micromolar concentrations”. In addition, in data set [9] (L1210 vs 3D7), the “Selectivity index (EC50 of L1210/EC50 3D7)” value was 1,438. In addition, the “Selectivity index (EC50 of HepG2/EC50 3D7)” value in data set [10] (HepG2 vs 3D7) was 444.

As usually defined, the EC50 is the concentration that produces a half-maximal response.
